Results on 14 molecules are retold here after patent US11530244B2, “Cyclic polypeptides for PCSK9 inhibition” (priority 2018, dated 2022).

Usually IC50 stands for the point on the concentration scale where inhibition reaches its midpoint.

Where two headings read alike, the source gives them in different places. Starred links: 1 amine or outer side, 2 acyl side, 3 side chain; linkers in the order of their positions; H or OH if unused. Positions of bridges follow the written chain, without caps; N, C: chain ends. Non-standard residues stand in square brackets, D forms with d. Residues, ends and D or L forms follow the SMILES beside them. Phe(4-COOH) = N[C@@H](Cc1ccc(C(=O)O)cc1)C(=O)O; Trp(5-F) = N[C@@H](Cc1c[nH]c2ccc(F)cc12)C(=O)O; Trp(6-F) = N[C@@H](Cc1c[nH]c2cc(F)ccc12)C(=O)O; Tyr(3-Cl) = N[C@@H](Cc1ccc(O)c(Cl)c1)C(=O)O; Bip = N[C@@H](Cc1ccc(-c2ccccc2)cc1)C(=O)O; NMeW = CN[C@@H](Cc1c[nH]c2ccccc12)C(=O)O; Dip = N[C@H](C(=O)O)C(c1ccccc1)c1ccccc1; X36 = O=C([C@H](CC1=NC=NC1)N[*:1])[*:2]; X4 = O=C(CCSCc1cccc(CSCCN[*:1])c1)[*:2]; mXylylene = c1cc(C[*:1])cc(C[*:2])c1; AEF = NCCOc1ccc(C[C@H](N)C(=O)O)cc1; NMeY = CN[C@@H](Cc1ccc(O)cc1)C(=O)O; hPhe = N[C@@H](CCc1ccccc1)C(=O)O; αMeP = C[C@@]1(C(=O)O)CCCN1; Orn = NCCC[C@H](N)C(=O)O; Ac3c = NC1(C(=O)O)CC1; Ahx = NCCCCCC(=O)O; Mpa = O=C(O)CCS

The target of one assay is PCSK9 (Homo sapiens (Human), UniProt Q8NBP7). The experiment in a line: PCSK9 Alexa FRET Standard assay (displacement of AlexaFluor647 tagged cyclic peptide Reagent A). Format: binding. Summed up:
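TR-FRET displacement: 0.5 nM biotinylated PCSK9 with 1.25 nM Strep-Eu and 20 nM AlexaFluor-tagged cyclic peptide (final) in 50 mM HEPES pH 7.4, 0.15 M NaCl, 5 mM CaCl2, 0.01% BSA, 0.01% P20, ≥2 h at room temperature. IC50 from sigmoidal fit, converted to Ki via peptide KD; falling Eu counts flagged false positives.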

Assay [1] has as its target human PCSK9 / human LDLR EGFa domain interaction (Homo sapiens (Human), UniProt Q8NBP7). The experiment in a line: TR-FRET assay of inhibition of the PCSK9-LDLR protein-protein interaction. It counts as binding. An outline of the steps: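 Readout is the TR-FRET signal between europium anti-6×His on his-tagged LDLR EGFa domain and Ulight streptavidin on biotinylated PCSK9, both proteins at 20 nM and both detection reagents at 5 nM. Incubation lasted 2 hours at room temperature; compounds were run in dose-response with a 4-parameter fit.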
For orientation: Time-resolved FRET reads energy transfer from a long-lived donor to a nearby acceptor.

Setting [2] is: PCSK9 Alexa FRET Standard assay, 0.5 nM PCSK9, 20 nM AF cyclic peptide Reagent A, read-out: IC50.
Where [3] appears, read: TR-FRET, 20 nM human PCSK9, 20 nM human LDLR EGFa domain, 2 hours room temperature, read-out: IC50.

human PCSK9 / human LDLR EGFa domain interaction, sequence (Q8NBP7 153-692): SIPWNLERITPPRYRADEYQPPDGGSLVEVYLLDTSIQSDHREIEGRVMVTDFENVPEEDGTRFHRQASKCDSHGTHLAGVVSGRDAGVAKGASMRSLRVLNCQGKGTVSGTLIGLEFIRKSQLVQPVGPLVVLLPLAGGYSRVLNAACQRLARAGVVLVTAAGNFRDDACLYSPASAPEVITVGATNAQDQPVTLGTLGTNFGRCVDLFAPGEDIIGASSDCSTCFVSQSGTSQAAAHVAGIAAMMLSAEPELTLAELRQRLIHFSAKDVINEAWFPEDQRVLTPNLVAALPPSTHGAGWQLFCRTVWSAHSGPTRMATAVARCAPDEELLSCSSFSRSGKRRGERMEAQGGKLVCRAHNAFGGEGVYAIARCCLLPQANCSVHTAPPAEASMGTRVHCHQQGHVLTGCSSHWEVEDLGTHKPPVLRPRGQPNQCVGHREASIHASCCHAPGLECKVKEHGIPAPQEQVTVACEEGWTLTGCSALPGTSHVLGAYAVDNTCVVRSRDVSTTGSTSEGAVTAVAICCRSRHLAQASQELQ
human PCSK9 / human LDLR EGFa domain interaction, sequence (Q8NBP7 31-152 partner): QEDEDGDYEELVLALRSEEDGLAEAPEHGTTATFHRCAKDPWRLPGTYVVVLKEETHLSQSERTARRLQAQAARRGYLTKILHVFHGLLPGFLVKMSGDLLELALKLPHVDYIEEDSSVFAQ
PCSK9, sequence (Q8NBP7 153-692): as the sequence (Q8NBP7 153-692) above

As for `NCCCC[C@@H]1NC(=O)CCSCc2cccc(c2)CSC[C@@H](C(N)=O)NC(=O)[C@@H]2CCCN2C(=O)[C@H](Cc2ccc(O)cc2)NC(=O)[C@H](Cc2c[nH]cn2)NC(=O)[C@H](CC(=O)O)NC(=O)[C@H](Cc2c[nH]c3ccc(F)cc23)NC(=O)[C@H](Cc2ccc(-c3ccccc3)cc2)NC(=O)CNC1=O` [Compound 210] ([Mpa]KG[Bip][Trp(5-F)]DHYPC-NH2; linker 1-10 via mXylylene), the IC50 (on PCSK9 (setting [2]); in assay [1] (setting [3])) was 1000 to 12100 nM each time.
For the molecule `C[C@@H](O)[C@@H]1NC(=O)[C@H](Cc2c[nH]c3ccc(F)cc23)NC(=O)[C@H](Cc2c[nH]c3ccc(F)cc23)NC(=O)CNC(=O)[C@H](CCCCN)NC(=O)CCSCc2cccc(c2)CSC[C@@H](C(N)=O)NC(=O)[C@@H]2CCCN2C(=O)[C@H](Cc2ccc(O)cc2)NC(=O)[C@H](Cc2c[nH]cn2)NC1=O` [Compound 224] ([Mpa]KG[Trp(5-F)][Trp(5-F)]THYPC-NH2; linker 1-10 via mXylylene), the IC50 (on PCSK9 (setting [2]); in assay [1] (setting [3])) was 100 to 1000 nM throughout.
As for `NCCCC[C@@H]1NC(=O)CCSCc2cccc(c2)CSC[C@@H](C(N)=O)NC(=O)[C@@H]2CCCN2C(=O)[C@H](Cc2ccc(O)cc2)NC(=O)[C@H](Cc2c[nH]cn2)NC(=O)[C@H](CC(=O)O)NC(=O)[C@H](CCc2ccccc2)NC(=O)[C@H](Cc2c[nH]c3ccc(F)cc23)NC(=O)CNC1=O` [Compound 244] ([Mpa]KG[Trp(5-F)][hPhe]DHYPC-NH2; linker 1-10 via mXylylene), the IC50 (on PCSK9 (setting [2]); in assay [1] (setting [3])) was 100 to 1000 nM throughout.
`C[C@H]1NC(=O)[C@H](CCCCN)NC(=O)CCSCc2cccc(c2)CSCCNC(=O)[C@]2(C)CCCN2C(=O)[C@H](Cc2ccc(O)c(Cl)c2)NC(=O)[C@H](Cc2cnc[nH]2)NC(=O)[C@H](CC(=O)O)NC(=O)[C@H](Cc2c[nH]c3ccc(F)cc23)NC(=O)[C@H](Cc2c[nH]c3ccc(F)cc23)NC1=O` [Compound 246] (cyclo(DH[Tyr(3-Cl)][αMeP][X4]K[dA][Trp(5-F)][Trp(5-F)])): the IC50 lay within 1000 to 12100 nM at PCSK9 (setting [2]) and 100 to 1000 nM in assay [1] (setting [3]).
In the case of `C[C@@]12CCCN1C(=O)[C@H](Cc1ccc(O)cc1)NC(=O)[C@H](Cc1cnc[nH]1)NC(=O)[C@H](CC(=O)O)NC(=O)[C@H](Cc1c[nH]c3ccc(F)cc13)NC(=O)[C@H](Cc1c[nH]c3ccc(F)cc13)NC(=O)CNC(=O)[C@H](CCCN)NC(=O)CCSCc1cccc(c1)CSC[C@@H](C(N)=O)NC2=O` [Compound 248] ([Mpa][Orn]G[Trp(5-F)][Trp(5-F)]DHY[αMeP]C-NH2; linker 1-10 via mXylylene), the values for the IC50 (at PCSK9 (setting [2]); in assay [1] (setting [3])) were 100 to 1000 nM and 0.1 to 100 nM, respectively.
For `CC(=O)N[C@@H]1CCCCNC(=O)c2ccc(cc2)C[C@@H](C(N)=O)NC(=O)[C@]2(C)CCCN2C(=O)[C@H](Cc2ccc(O)cc2)NC(=O)[C@H](Cc2cnc[nH]2)NC(=O)[C@H](CC(=O)O)NC(=O)[C@H](Cc2c[nH]c3ccc(F)cc23)NC(=O)[C@H](Cc2c[nH]c3ccc(F)cc23)NC(=O)CNC1=O` [Compound 255] (Ac-[dK]G[Trp(5-F)][Trp(5-F)]DHY[αMeP][Phe(4-COOH)]-NH2; lactam 1-9), the concentration for half-maximal inhibition (IC50) (at PCSK9 (setting [2]); in assay [1] (setting [3])) was 100 to 1000 nM throughout.
Take `NCCCC[C@@H]1NC(=O)CCSCc2cccc(c2)CSC[C@@H](C(N)=O)NC(=O)[C@@H]2CCCN2C(=O)[C@H](Cc2ccc(OCCN)cc2)NC(=O)[C@H](Cc2c[nH]cn2)NC(=O)[C@H](CC(=O)O)NC(=O)[C@H](Cc2c[nH]c3ccc(F)cc23)NC(=O)[C@H](Cc2c[nH]c3ccc(F)cc23)NC(=O)CNC1=O` [Compound 265] ([Mpa]KG[Trp(5-F)][Trp(5-F)]DH[AEF]PC-NH2; linker 1-10 via mXylylene): the IC50 (on PCSK9 (setting [2]); in assay [1] (setting [3])) was 100 to 1000 nM in each case.
In the case of `COc1ccc(C[C@@H]2NC(=O)[C@H](CC3=NC=NC3)NC(=O)[C@H](CC(=O)O)NC(=O)[C@H](Cc3c[nH]c4ccc(F)cc34)NC(=O)[C@H](C(c3ccccc3)c3ccccc3)NC(=O)[C@@H](C)NC(=O)[C@H](CCCCN)NC(=O)CCSCc3cccc(c3)CSCCNC(=O)[C@]3(C)CCCN3C2=O)cc1` [Compound 275] (cyclo(D[X36]Y(Me)[αMeP][X4]K[dA][Dip][Trp(5-F)])), the results for the IC50 (at PCSK9 (setting [2]); in assay [1] (setting [3])) were 0.11 to 100 nM and 0.1 to 100 nM, respectively.
On to `C[C@H]1NC(=O)[C@H](CCCCN)NC(=O)CCSCc2cccc(c2)CSCCNC(=O)[C@]2(C)CCCN2C(=O)[C@H](Cc2ccc(O)cc2)N(C)C(=O)[C@H](Cc2c[nH]cn2)NC(=O)[C@H](CC(=O)O)NC(=O)[C@H](Cc2c[nH]c3ccc(F)cc23)NC(=O)[C@H](Cc2c[nH]c3ccccc23)N(C)C1=O` [Compound 276] (cyclo(DH[NMeY][αMeP][X4]K[dA][NMeW][Trp(5-F)])), for which the IC50 at PCSK9 (IC50) is 100 to 1000 nM; in assay [1] it was 0.1 to 100 nM.
Turning to `C[C@@]12CCCN1C(=O)[C@H](Cc1ccc(O)cc1)NC(=O)[C@H](Cc1c[nH]cn1)NC(=O)[C@H](CC(=O)O)NC(=O)[C@H](Cc1c[nH]c3ccc(F)cc13)NC(=O)[C@H](Cc1c[nH]c3ccc(F)cc13)NC(=O)CNC(=O)C1(CC1)NC(=O)CCSCc1cccc(c1)CSC[C@@H](C(N)=O)NC2=O` [Compound 281] ([Mpa][Ac3c]G[Trp(5-F)][Trp(5-F)]DHY[αMeP]C-NH2; linker 1-10 via mXylylene), the figures for the IC50 (on PCSK9 (setting [2]); in assay [1] (setting [3])) were 100 to 1000 nM and 0.1 to 100 nM, respectively.
In the case of `CC(=O)N[C@H]1CC(=O)NCCOc2ccc(cc2)C[C@@H](C(N)=O)NC(=O)[C@]2(C)CCCN2C(=O)[C@H](Cc2ccc(O)cc2)NC(=O)[C@H](Cc2c[nH]cn2)NC(=O)[C@H](CC(=O)O)NC(=O)[C@H](Cc2c[nH]c3ccc(F)cc23)NC(=O)[C@H](Cc2c[nH]c3ccc(F)cc23)NC(=O)CNC(=O)[C@H](C)NC1=O` [Compound 310] (Ac-DAG[Trp(5-F)][Trp(5-F)]DHY[αMeP][AEF]-NH2; lactam 1-10), the IC50 (on PCSK9 (setting [2]); in assay [1] (setting [3])) was 1000 to 12100 nM each time.
Consider `CC(=O)N[C@H]1CCC(=O)NCCOc2ccc(cc2)C[C@@H](C(N)=O)NC(=O)[C@]2(C)CCCN2C(=O)[C@H](Cc2ccc(O)cc2)NC(=O)[C@H](Cc2c[nH]cn2)NC(=O)[C@H](CC(=O)O)NC(=O)[C@H](Cc2c[nH]c3ccc(F)cc23)NC(=O)[C@H](Cc2c[nH]c3ccc(F)cc23)NC(=O)CNC(=O)[C@H](C)NC1=O` [Compound 311] (Ac-EAG[Trp(5-F)][Trp(5-F)]DHY[αMeP][AEF]-NH2; lactam 1-10), for which the IC50 on PCSK9 (setting [2]) lay within 1000 to 12100 nM; in assay [1] (setting [3]), 100 to 1000 nM.
As to `CC(=O)N[C@H]1CCCCNC(=O)c2ccc(cc2)C[C@@H](C(N)=O)NC(=O)[C@]2(C)CCCN2C(=O)[C@H](Cc2ccc(O)cc2)NC(=O)[C@H](Cc2cnc[nH]2)NC(=O)[C@H](CC(=O)O)NC(=O)[C@H](Cc2c[nH]c3cc(F)ccc23)NC(=O)[C@H](Cc2c[nH]c3ccc(F)cc23)NC(=O)CNC(=O)[C@H](C)NC1=O` [Compound 312] (Ac-KAG[Trp(5-F)][Trp(6-F)]DHY[αMeP][Phe(4-COOH)]-NH2; lactam 1-10), the IC50 lay within 1000 to 12100 nM at PCSK9 (setting [2]) and 100 to 1000 nM in assay [1] (setting [3]).
On to `C[C@@]12CCCN1C(=O)[C@H](Cc1ccc(O)cc1)NC(=O)[C@H](Cc1cnc[nH]1)NC(=O)[C@H](CC(=O)O)NC(=O)[C@H](Cc1c[nH]c3cc(F)ccc13)NC(=O)[C@H](Cc1c[nH]c3ccc(F)cc13)NC(=O)CNC(=O)CCCCCNC(=O)c1ccc(cc1)C[C@@H](C(N)=O)NC2=O` [Compound 313] ([Ahx]G[Trp(5-F)][Trp(6-F)]DHY[αMeP][Phe(4-COOH)]-NH2; lactam N-9), for which the IC50 (at PCSK9 (setting [2]); in assay [1] (setting [3])) was 1000 to 12100 nM throughout.
